The conditions of series [1]: female, guinea pig, in vivo.
Method: (§1) Female guinea pigs (Charles River) weighing 200-300 g, of approximately 6-8 weeks of age are used (N=4 per group). Prior to any procedure, animals are anesthetized using a combination of xylazine (10 mg/kg), ketamine (40 mg/kg) and acepromazine (0.75 mg/kg) for up to an hour via the intramuscular route. If needed, an intraoperative booster is administered intraperitoneally representing one-tenth of the original dose. Intratympanic injection—Each animal is positioned so that the head is tilted at an angle to favor injection towards the round window niche. Briefly, under visualization with an operating microscope, 50 μl of formulations comprising 0.2-6% dexamethasone and varying concentrations of P407 are administered to the animals. […] During the procedure and until recovery, animals are placed on a temperature controlled (40° C.) heating pad until consciousness is regained at which time they are returned to the vivarium.
(§2) The skin behind the ear of anesthetized guinea pigs is shaved and disinfected with povidone-iodine. An incision is then made behind the ear, and muscles are carefully retracted from over the bulla. A hole is drilled though the bulla using a dental burr so that the middle ear is exposed and accessible. The cochlea and the round window membrane are visualized under a stereo surgical microscope. A unique microhole is hand drilled through the bony shell of the cochlea (active capsule) adjacent to the round window. Perilymph (5 μl) is then collected using a microcapillary inserted into the cochlear scala tympani.
Series [2] in a line: Inner ear (perilymph) pharmacokinetics after intratympanic administration in guinea pigs. The note with it: for methylprednisolone peak level in the perilymph: intratympanic administration of hydrogel.
Method: as §1, §2
Series [3] has as its system Cisplatin induced hearing loss. In words: Cisplatin induced ototoxicity model, intratympanic injection, hearing by ABR. It counts as in vivo, guinea pig. As for the experimental part:
Intratympanic injection of a formulation of Example 1 is administered the day before cisplatin administration. The lower right quadrant of the abdomen is shaved 1 inch and swabbed with alcohol. A tiny (2-3 mm) incision is made on the abdomen and a 21 G blunt needle is used to penetrate the abdominal wall and into the intraperitoneal cavity. The needle will be connected to an infusion bag containing cisplatin for a slow infusion of 15-30 minutes in the range of 5-15 mg/kg. The incision site is closed using sterile staples. Animals will be placed on a warming pad during the infusion and while recovering. In addition, animals receive twice daily IP injection of saline solution for 3 days to prevent nephrotoxicity.
The hearing of the animal is tested by recording the brainstem activity in response to a known auditory stimulus. (ABR: Auditory Brainstem Response) at various time points. This measurement is performed under general anesthesia. During the procedure the animal is placed on a heating pad (40° C.) in a sound proof booth and an earphone is fitted loosely into one ear at a time. Three subcutaneous needle electrodes are used to measure the brainstem activity. […] The recording then takes place, where the audio stimulus is applied at different frequencies and hearing thresholds, and the brainstem activity recorded.

Series [4] is described as follows: In vitro dissolution / mean dissolution time (MDT) of active agent from formulation. The series is classed as physicochemical. The method, then: The release profile of compositions suitable for methods described herein is optionally determined using dissolution techniques. In one embodiment, dissolution is performed at 37° C. in snapwells (6.5 mm diameter polycarbonate membrane with a pore size of 0.4 μm), 0.2 mL of a gel formulation described herein (e.g., a gel formulation of Example 1) is placed into snapwell and left to harden, then 0.5 mL buffer is placed into reservoir and shaken using a Labline orbit shaker at 70 rpm. Samples are taken every hour (0.1 mL withdrawn and replace with warm buffer). Samples are analyzed for active agent concentration by UV at 245 nm against an external calibration standard curve. Pluronic concentration is analyzed at 624 nm using the cobalt thiocyanate method. Relative rank-order of mean dissolution time (MDT) as a function of % P407 is determined. […] A non-linear relationship indicates release of active agent via a combination of diffusion and/or polymer gel degradation.
The MDT is inversely proportional to the release rate of an active agent from a composition described herein. Experimentally, the released active agent is optionally fitted to the Korsmeyer-Peppas equation: […]
where Q is the amount of active agent released at time t, Qα is the overall released amount of active agent, k is a release constant of the nth order, n is a dimensionless number related to the dissolution mechanism and b is the axis intercept, characterizing the initial burst release mechanism wherein n=1 characterizes an erosion controlled mechanism. The mean dissolution time (MDT) is the sum of different periods of time the drug molecules stay in the matrix before release, divided by the total number of molecules and is optionally calculated by: […]
In alternate embodiments, samples are analyzed using the method described by Li Xin-Yu paper [Acta Pharmaceutica Sinica 2008, 43(2):[…]] and Rank-order of mean dissolution time (MDT) as a function of % P407 is determined.

For series [5], the system named is noise induced hearing loss. The series is described as follows: Acoustic trauma / noise induced hearing loss model, intratympanic injection, hearing by ABR. It counts as in vivo, guinea pig. The note with it: thermoreversible gel formulation, prophylactic intratympanic administration. As for the experimental part: The hearing of the animal is tested by recording the brainstem activity in response to a known auditory stimulus. (ABR: Auditory Brainstem Response) at various time points. This measurement is performed under general anesthesia. During the procedure the animal is placed on a heating pad (40° C.) in a sound proof booth and an earphone is fitted loosely into one ear at a time. Three subcutaneous needle electrodes are used to measure the brainstem activity. One is placed behind the ear with the earphone, one on the vertex of the skull and one in the hindleg. The recording then takes place, where the audio stimulus is applied at different frequencies and hearing thresholds, and the brainstem activity recorded.
Following the procedure described in Example 9, a dexamethasone formulation is administered to guinea pigs prior to exposure to acoustic trauma. Hearing is evaluated as described in Example 8 above.
Following the procedure described in Example 9, a SP600125 formulation is administered to guinea pigs prior to exposure to acoustic trauma. Hearing is evaluated as described in Example 9 above.

Where [6] appears, read: intratympanic administration in hydrogel vehicle.

Where two headings read alike, the source gives them in different places.

`CC(=O)OCC(=O)[C@@]1(O)[C@H](C)C[C@H]2[C@@H]3CCC4=CC(=O)C=C[C@]4(C)[C@@]3(F)[C@@H](O)C[C@@]21C` [DA, Dexamethasone acetate]: in series [1], the “inner ear exposure, dexamethasone in perilymph (AUC)” value was 84000 to 359000 ng·h/mL and the “residence time in inner ear compartment (MRT)” value lay in the range of 17 to 82 h.

Regarding `C[C@@H]1C[C@H]2[C@@H]3CCC4=CC(=O)C=C[C@]4(C)[C@@]3(F)[C@@H](O)C[C@]2(C)[C@@]1(O)C(=O)COP(=O)([O-])[O-].[Na+].[Na+]` [DSP], in series [2] (setting [6]), the “inner ear exposure, dexamethasone in perilymph (AUC)” value is 28000 to 57000 ng·h/mL and the “residence time in inner ear compartment (MRT)” value was in the range of 4 to 7 h. Besides, the “auditory function versus saline control, acute cisplatin ototoxicity” value in series [3] (2.0% solution, single bilateral intratympanic injection one day before cisplatin 12 mg/kg, Day 7 post cisplatin) is on record as “No significant differences”. Besides, in series [4] (17% Poloxamer 407 formulation), the “MDT (mean dissolution time)” value was “about 3 h”. The “MDT (mean dissolution time)” value in series [4] (aqueous solution) was determined as 0.3 h.

As to `C[C@H]1C[C@@H]2[C@H]([C@@H](O)C[C@@]3(C)[C@H]2CC[C@]3(O)C(=O)CO)[C@@]2(C)C=CC(=O)C=C12` [MP, methylprednisolone], in series [2], the “methylprednisolone peak level in the perilymph” value was determined as 19.2 µg/mL. Besides, in series [2] (intratympanic hydrogel), the “decline of perilymph levels after peak (in words)” value is “decreased slowly over 10 days”.

On to `C[C@H]1C[C@@H]2[C@H]([C@@H](O)C[C@@]3(C)[C@H]2CC[C@]3(O)C(=O)COC(=O)CCC(=O)[O-])[C@@]2(C)C=CC(=O)C=C12.[Na+]` [MPS], for which, in series [2], the “methylprednisolone peak level in the perilymph” value stood at 6.5 µg/mL. Besides, the “perilymph level as fraction of the peak levels” value in series [2] (within 3 days after intratympanic hydrogel) is given as 0.8-1.0%. The “MDT (mean dissolution time)” value in series [4] (17% Poloxamer 407 formulation) is “about 3 h”.

As for `CC#C[C@]1(O)CC[C@H]2[C@@H]3CCC4=CC(=O)CCC4=C3[C@@H](c3ccc(N(C)C)cc3)C[C@@]21C` [Mifepristone], in series [3] (6.0% mifepristone + 6.0% dexamethasone gel, intratympanic, one day before cisplatin 12 mg/kg), the “effect on dexamethasone gel protection against acute cisplatin ototoxicity” value is given as “antagonizes dexamethasone gel protection”.

Take `O=C1c2ccccc2-c2n[nH]c3cccc1c23` [SP600125, anthra[1,9-cd]pyrazol-6(2H)-one]: in series [5], the “protection against acoustic trauma / prevention of hearing loss” value is “preventing hearing loss due to acoustic trauma”.

For “IGF-1: insulin-like growth factor, trophic agent/growth factor (PeproTech)”, in series [5], the “protection against acoustic trauma / prevention of hearing loss” value is listed as “protects against acoustic trauma”.
